According to ChEMBL document CHEMBL5532665 (J Med Chem, 2024):

Tests used:
[1] = Stability in mouse plasma assessed as half life at 0.01 mol/L measured for 72 hrs by RP-HPLC analysis; type: ADME, cell-free
[2] = biological target: T1, Kappa-type opioid receptor (Homo sapiens, UniProt P41145); test: Agonist activity at human KOR expressed in CHO-K1 cells co-expressing G-alpha15 by calcium mobilization assay; type: functional, cell-based; details: cho-k1
Mu-type opioid receptor [3] = biological target: T2, Mu-type opioid receptor (Homo sapiens, UniProt P35372); test: Agonist activity at human MOR expressed in CHO-K1 cells co-expressing G-alpha15 by calcium mobilization assay; type: functional, cell-based; details: cho-k1
T2 sequence (P35372 whole entry): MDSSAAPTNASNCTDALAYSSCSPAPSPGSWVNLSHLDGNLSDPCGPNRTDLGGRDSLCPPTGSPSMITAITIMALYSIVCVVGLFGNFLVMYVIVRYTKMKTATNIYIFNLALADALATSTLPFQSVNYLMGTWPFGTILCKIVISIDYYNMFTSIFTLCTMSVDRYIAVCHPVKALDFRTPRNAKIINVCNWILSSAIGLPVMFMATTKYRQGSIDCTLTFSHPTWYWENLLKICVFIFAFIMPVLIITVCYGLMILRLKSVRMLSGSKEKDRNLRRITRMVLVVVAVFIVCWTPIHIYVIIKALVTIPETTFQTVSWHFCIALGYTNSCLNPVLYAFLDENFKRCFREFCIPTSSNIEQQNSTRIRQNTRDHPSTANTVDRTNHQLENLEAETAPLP

[4] = Selectivity ratio of ED50 for inhibition of gastrointestinal motility in fasted Kunming mouse model treated subcutaneously to ED50 for antinociceptive activity in Kunming mouse model administered subcutaneously measured for 5 to 15 mins by acetic acid-induced writhing test; type: toxicity; details: in vivo, route sc, read-out: Ratio ED50
[5] = biological target: T3, Delta-type opioid receptor (Homo sapiens, UniProt P41143); test: Agonist activity at human DOR expressed in CHO-K1 cells co-expressing G-alpha15 by calcium mobilization assay; type: functional, cell-based; details: cho-k1
T3 sequence (P41143 whole entry): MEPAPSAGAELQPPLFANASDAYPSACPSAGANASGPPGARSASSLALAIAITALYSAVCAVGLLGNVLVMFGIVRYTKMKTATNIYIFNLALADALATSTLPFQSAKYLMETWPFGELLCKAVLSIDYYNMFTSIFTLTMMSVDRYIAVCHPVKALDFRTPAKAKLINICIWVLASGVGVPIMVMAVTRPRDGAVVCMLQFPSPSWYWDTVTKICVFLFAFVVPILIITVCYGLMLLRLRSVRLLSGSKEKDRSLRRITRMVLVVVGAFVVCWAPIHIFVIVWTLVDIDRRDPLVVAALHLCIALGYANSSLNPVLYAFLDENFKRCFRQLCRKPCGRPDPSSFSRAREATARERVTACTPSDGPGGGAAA

[6] = Selectivity ratio of ED50 for inhibition of gastrointestinal motility in fasted Kunming mouse model treated subcutaneously to ED50 for antinociceptive activity in Kunming mouse model administered subcutaneously by tail-flick test; type: toxicity; details: in vivo, route sc, read-out: Ratio ED50
[7] = Toxicity in Kunming mouse model assessed as effect on locomotor co-ordination at 13.8 nmol/kg, sc measured for 10 to 40 mins by rotarod test; type: organism-based; details: in vivo, time 10-40 min
Mu-type opioid receptor [8] = biological target: T2, Mu-type opioid receptor; test: Agonist activity at human MOR expressed in CHO-K1 cells co-expressing G-alpha15 by calcium mobilization assay relative to control; type: functional, cell-based; details: filed as agonist
Mus musculus [9] = test: Antinociceptive activity in Kunming mouse model assessed as latency of tail withdrawal at 138.9 nmol/kg, sc measured for 10 mins by tail-flick test relative to control; type: functional
Mus musculus [10] = test: Antinociceptive activity in Kunming mouse model assessed as latency of tail withdrawal at 138.9 nmol/kg, sc measured for 60 mins by tail-flick test relative to control; type: functional; details: 1 h
[11] = biological target: T1, Kappa-type opioid receptor; test: Agonist activity at human KOR expressed in CHO-K1 cells co-expressing G-alpha15 by calcium mobilization assay relative to control; type: functional, cell-based; details: filed as agonist
Mus musculus [12] = test: Antinociceptive activity in Kunming mouse model assessed as latency of tail withdrawal at 138.9 nmol/kg, sc measured for 30 mins by tail-flick test relative to control; type: functional; details: 0.5 h
Mus musculus [13] = test: Antinociceptive activity in Kunming mouse model assessed as latency of tail withdrawal at 138.9 nmol/kg, sc measured for 120 mins by tail-flick test relative to control; type: functional; details: 2 h
[14] = biological target: T3, Delta-type opioid receptor; test: Agonist activity at human DOR expressed in CHO-K1 cells co-expressing G-alpha15 by calcium mobilization assay relative to control; type: functional, cell-based; details: filed as agonist
[15] = Toxicity in Kunming mouse model assessed as effect on locomotor co-ordination at 139 nmol/kg, sc measured for 10 to 40 mins by rotarod test; type: organism-based; details: in vivo, time 10-40 min

T1 sequence (P41145 whole entry): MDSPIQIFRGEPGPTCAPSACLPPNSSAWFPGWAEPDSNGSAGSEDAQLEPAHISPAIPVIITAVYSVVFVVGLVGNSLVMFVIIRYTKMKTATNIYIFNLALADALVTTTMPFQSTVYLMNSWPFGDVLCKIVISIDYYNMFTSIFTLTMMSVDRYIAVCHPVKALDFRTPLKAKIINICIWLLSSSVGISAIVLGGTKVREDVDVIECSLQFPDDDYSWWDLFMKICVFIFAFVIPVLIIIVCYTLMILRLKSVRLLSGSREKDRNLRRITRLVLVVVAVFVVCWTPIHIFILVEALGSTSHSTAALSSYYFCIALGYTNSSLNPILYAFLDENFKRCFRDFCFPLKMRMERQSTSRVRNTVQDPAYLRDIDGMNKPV

Row | SMILES | half-life at 0.01 mol/L [1] [h] | EC50 [2] [nM] | EC50 (Mu-type opioid receptor [3]) [nM] | selectivity ratio [4] | EC50 [5] [nM] | selectivity ratio [6] | Activity [7] | Emax (Mu-type opioid receptor [8]) [%] | MPE (Mus musculus [9]) [%] | MPE (Mus musculus [10]) [%] | Emax [11] [%] | MPE (Mus musculus [12]) [%] | MPE (Mus musculus [13]) [%] | Emax [14] [%] | Activity [15]
1 | NC(=O)[C@H]1CCCN1C(=O)[C@@H]1CC(=O)NCCCC[C@@H](NC(=O)[C@@H](N)Cc2ccc(O)cc2)C(=O)NCC(=O)N[C@@H](Cc2ccc(F)cc2)C(=O)N1 | 53.5 | 92.2 | 0.9 | 22 | 0.6 | 55 | Non-Toxic |  |  |  |  |  |  |  | 
2 | NC(=O)[C@H]1CCCCN1C(=O)[C@H]1CC(=O)NCCCC[C@@H](NC(=O)[C@@H](N)Cc2ccc(O)cc2)C(=O)NCC(=O)N[C@@H](Cc2ccccc2)C(=O)N1 |  | 2280 | 4.9 |  | 0.2 |  |  | 99.6 | 59.6 | 61.4 | 68.7 | 86.8 | 26.7 | 95.4 | 
3 | CN1C(=O)CNC(=O)[C@H](NC(=O)[C@@H](N)Cc2ccc(O)cc2)CCCCNC(=O)C[C@@H](C(=O)N2CCC[C@@H]2C(N)=O)NC(=O)[C@@H]1Cc1ccccc1 | 21.1 | 505 | 2.5 | 13 | 17.5 | 54 |  |  |  |  |  |  |  |  | Non-Toxic
